Test results reported in paper PMC6943918 (The Biochemical journal, 2014).

Target: T1, ZmTenA_E (maize TenA_E, GRMZM2G080501) (Zea mays, UniProt B6TPF2)
T1 sequence (B6TPF2 1-224): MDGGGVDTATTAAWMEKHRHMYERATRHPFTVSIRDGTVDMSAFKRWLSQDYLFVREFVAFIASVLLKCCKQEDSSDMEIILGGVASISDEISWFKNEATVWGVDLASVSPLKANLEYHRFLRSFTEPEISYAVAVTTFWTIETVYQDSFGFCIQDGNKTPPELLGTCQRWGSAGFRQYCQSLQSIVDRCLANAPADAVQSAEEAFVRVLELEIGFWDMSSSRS
Experiment: HPLC-UV
Type: biochemical
Conditions: amino-HMP aminohydrolase; 100 nmol substrate, 50 μg enzyme, 4 h, 30°C

## Cc1ncc(CN)c(N)n1 [Amino-HMP, 4-amino-5-aminomethyl-2-methylpyrimidine]
  HPLC-UV (235 nm) hydrolysis assay: both plant TenA_E proteins had some activity against amino-HMP
